Reference: the NIST ThermoML archive (doi:10.1016/j.tca.2016.03.013)
Several values for one entry are separate records, joined by “and”; a condition that tells them apart may be missing. Identical values can stand only once.

Legend:
[1] = for vapor or sublimation pressure: Liquid, Rate of evaporation; for Normal melting temperature: DTA
[2] = molar heat capacity at constant pressure; conditions: 101.33 kPa, Small sample (50 mg) DSC
[3] = Molar enthalpy of transition or fusion; conditions: DSC

c1ccc2cc3ccccc3cc2c1 [anthracene]
[1]
Conditions	vapor or sublimation pressure [kPa]
494 K	5.794
496 K	6.242
498 K	6.713
500 K	7.174
502 K	7.662
504 K	8.173
506 K	8.694
508 K	9.227
510 K	9.775
512 K	10.31

c1ccc2c(c1)OCCOCCOCCOc1ccccc1OCCOCCOCCO2 [dibenzo-24-crown-8]
[2]
Conditions	molar heat capacity at constant pressure [J/K/mol]
295 K, Crystal 2	602
298.15 K, Crystal 2	611.3
300 K, Crystal 2	615.7
305 K, Crystal 2	627.3
310 K, Crystal 2	638.8
315 K, Crystal 2	648
320 K, Crystal 2	658.1
325 K, Crystal 2	668.9
330 K, Crystal 2	681.3
335 K, Crystal 2	692.8
340 K, Crystal 2	706.2
355 K, Crystal 1	755.6
360 K, Crystal 1	771.8
365 K, Crystal 1	802
380 K, Liquid	921.2
385 K, Liquid	922.5
390 K, Liquid	927.3
395 K, Liquid	930.4
400 K, Liquid	934.6
405 K, Liquid	938.7
410 K, Liquid	943.5
415 K, Liquid	947.5
420 K, Liquid	956.1
425 K, Liquid	962.6
430 K, Liquid	968.4
435 K, Liquid	974.4
440 K, Liquid	979
445 K, Liquid	985.6
450 K, Liquid	990.7
455 K, Liquid	996.8
460 K, Liquid	1003.2
465 K, Liquid	1009.9
470 K, Liquid	1016.5
475 K, Liquid	1020.4
480 K, Liquid	1025.3
485 K, Liquid	1030.6
490 K, Liquid	1036.3

Conditions	Molar enthalpy of transition or fusion [kcal/mol]	Normal melting temperature [°C]	Triple point temperature [K]	vapor or sublimation pressure
[1], 545 K	–	–	–	0.114 kPa and 0.1131 kPa and 0.1132 kPa
[1], 550 K	–	–	–	0.1434 kPa and 0.1414 kPa and 0.1402 kPa
[1], 555 K	–	–	–	0.1736 kPa and 0.1757 kPa and 0.1786 kPa
[1], 560 K	–	–	–	0.2155 kPa and 0.2204 kPa and 0.2198 kPa
[1], 565 K	–	–	–	0.2674 kPa and 0.2714 kPa and 0.2733 kPa
[1], 570 K	–	–	–	0.3406 kPa and 0.3372 kPa and 0.3358 kPa
[1], 575 K	–	–	–	0.4082 kPa and 0.4133 kPa and 0.4103 kPa
[1], 580 K	–	–	–	0.4998 kPa and 0.5082 kPa and 0.5036 kPa
[1], 585 K	–	–	–	0.607 kPa and 0.6171 kPa and 0.6145 kPa
[1], 590 K	–	–	–	0.7381 kPa and 0.7487 kPa and 0.7461 kPa
[1], 595 K	–	–	–	0.9028 kPa and 0.897 kPa and 0.9062 kPa
[1], Crystal 1	–	100.72	–	–
[1], Crystal 2, DSC	–	–	346.32	–
[3], Crystal 1	12.8	–	–	–
[3], Crystal 2	0.234	–	–	–

c1ccc2c(c1)OCCOCCOCCOCCOc1ccccc1OCCOCCOCCOCCO2 [dibenzo-30-crown-10]
[2]
Conditions	molar heat capacity at constant pressure [J/K/mol]
295 K, Crystal	668.8
298.15 K, Crystal	680.4
300 K, Crystal	686.9
305 K, Crystal	700.3
310 K, Crystal	715.3
315 K, Crystal	728.4
320 K, Crystal	741.6
325 K, Crystal	755.5
330 K, Crystal	769.9
335 K, Crystal	783.3
340 K, Crystal	797
345 K, Crystal	811.5
350 K, Crystal	826.4
355 K, Crystal	844.9
360 K, Crystal	868.2
390 K, Liquid	1144.6
395 K, Liquid	1148.9
400 K, Liquid	1153
405 K, Liquid	1159.5
410 K, Liquid	1164.6
415 K, Liquid	1169.3
420 K, Liquid	1179.2
425 K, Liquid	1186.2
430 K, Liquid	1187.9
435 K, Liquid	1195
440 K, Liquid	1196.6
445 K, Liquid	1199.2
450 K, Liquid	1201.2
455 K, Liquid	1200.9
460 K, Liquid	1201.6
465 K, Liquid	1202
470 K, Liquid	1201.9

Conditions	Molar enthalpy of transition or fusion [kcal/mol]	Normal melting temperature [°C]	vapor or sublimation pressure
[1], 545 K	–	–	0.0347 kPa and 0.0354 kPa
[1], 550 K	–	–	0.0405 kPa and 0.0424 kPa and 0.0433 kPa
[1], 555 K	–	–	0.0515 kPa and 0.0526 kPa and 0.0536 kPa
[1], 560 K	–	–	0.0655 kPa and 0.0614 kPa and 0.0649 kPa
[1], 565 K	–	–	0.0772 kPa and 0.0781 kPa and 0.0764 kPa
[1], 570 K	–	–	0.0969 kPa and 0.0924 kPa and 0.0946 kPa
[1], 575 K	–	–	0.116 kPa and 0.118 kPa and 0.1176 kPa
[1], 580 K	–	–	0.1429 kPa and 0.1455 kPa and 0.1444 kPa
[1], 585 K	–	–	0.1768 kPa and 0.1779 kPa and 0.188 kPa
[1], 590 K	–	–	0.2184 kPa and 0.2143 kPa and 0.2192 kPa
[1], 595 K	–	–	0.2675 kPa and 0.2625 kPa and 0.2682 kPa
[1], Crystal	–	104.5	–
[3], Crystal	20.7	–	–
